Reference: US4693996A, “Method of treating heart failure and medicaments therefor” (Warner-Lambert Company, priority 1985, dated 1987)

How the values were obtained:
A1 adenosine receptor = biological target: T1, A1 adenosine receptor (Rattus norvegicus, UniProt P25099); experiment: A1 adenosine receptor binding, isolated rat brain membranes
T1 construct: isolated rat brain membranes; from tissue; host or cells: rat brain membranes
T1 sequence (P25099 1-326): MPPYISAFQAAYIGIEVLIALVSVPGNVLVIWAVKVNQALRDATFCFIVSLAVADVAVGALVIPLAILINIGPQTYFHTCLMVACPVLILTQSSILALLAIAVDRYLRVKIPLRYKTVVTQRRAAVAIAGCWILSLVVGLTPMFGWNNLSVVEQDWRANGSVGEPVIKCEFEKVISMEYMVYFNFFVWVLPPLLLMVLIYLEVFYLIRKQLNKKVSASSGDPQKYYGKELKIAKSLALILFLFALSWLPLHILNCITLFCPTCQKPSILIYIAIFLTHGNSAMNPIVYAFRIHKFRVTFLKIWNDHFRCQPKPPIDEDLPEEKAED

dopaminergic receptors = experiment: dopaminergic receptor binding
muscarinic receptors = experiment: muscarinic receptor binding
α1-adrenergic receptors = experiment: α1-adrenergic receptor binding
α2-adrenergic receptors = experiment: α2-adrenergic receptor binding
β1-adrenergic receptors = experiment: β1-adrenergic receptor binding
β2-adrenergic receptors = experiment: β2-adrenergic receptor binding
serotonergic receptors = experiment: serotonergic receptor binding
[1] = tested on: α-aminobuteric acid receptors; experiment: α-aminobuteric acid receptor binding
[2] = tested on: isolated-Langendorff perfused rat hearts; experiment: isolated-Langendorff perfused rat hearts; conditions: 10^-8 -3×10^-6 M
[3] = tested on: anesthetized-vagotomized normotensive rats; experiment: hemodynamics in anesthetized-vagotomized normotensive rats; format: in vivo, rat; conditions: IV 3 to 300 mg/kg
Description: In this procedure the (R)-N-(2,3-dihydro-1H-inden-1-yl)adenosine (B) is administered intravenously (IV) at 3 to 300 mg/kg in anesthetized-vagotomized normotensive rats.

[4] = tested on: anesthetized normotensive dogs; experiment: hemodynamics in anesthetized normotensive dogs; format: in vivo, dog; conditions: IV
Description: Such administration is by a method essentially described as follows:
Mongrel dogs of either sex are anesthetized with sodium pentobarbital (30 mg/kg IV) and mechanically ventilated with room air. The left and right femoral veins are cannulated for injection of test compound and maintenance anesthesia (3.5 mg/kg/hr), respectively. Cardiac output is measured by a thermodilution catheter positioned in the pulmonary artery. Left ventricular contractility (dP/dt) is measured by a Millar Mikro-Tip catheter pressure transducer positioned in the left ventricular cavity via the left carotid artery, heart rate, and lead II electrocardiogram are recorded continuously. Each animal is allowed 30 minutes to stabilize and hemodynamic control pressures, cardiac output, and electrocardiographic measurements are recorded. Compounds are dissolved in saline if possible and pH adjusted. If another solvent is required, vehicle control experiments are performed. Test compounds are administered as rising bolus doses usually starting at 0.1 midtherapeutic and increasing in half log doses to 30 X midtherapeutic. All cardiovascular measurements are repeated after each dose.
Agent induced effects on any of the cardiovascular measurements are recorded.

[5] = tested on: anesthetized dog with propranolol-induced myocardial depression; experiment: propranolol-induced acute heart failure in the anesthetized dog; format: in vivo; conditions: B 6 μg/kg/min infusion, A 0.01 to 3.0 mg/kg IV bolus
Description: CONT indicates the control before propanolol induced cardiac depression, DEP indicates a stable propanolol depression, and TD indicates administration of the initial test drug, either saline or (R)-N-(2,3-dihydro-1H-inden-1-yl)adenosine (B).
Adult mongrel dogs of either sex are anesthetized with sodium pentobarbital (32 mg/kg) IV, trachea intubated, and ventilated artificially. Anesthesia is maintained by a continuous infusion of sodium pentobarbital (3.0 mg/kg/hr) through a femoral vein cannula. Three additional venous cannulae are used for (1) propranolol infusion, (2) (R)-N-(2,3-dihydro-1H-inden-1-yl)adenosine or saline infusion and (3) bolus injections of either 4,5-dihydro-6-[4-(1H-imidazol-1-yl)phenyl]-3(2H)pyridazinone, hydrochloride salt or saline. Systemic arterial blood pressure, left ventricular contractility (dP/dt), and heart rate are recorded continuously. Cardiac output, measured by thermodilution, is recorded before myocardial depression, when stable myocardial depression is achieved (approximately 30 minutes), and ten minutes following each bolus dose. Following surgical preparation, 30 minutes are allowed for hemodynamic stabilization prior to induction of the myocardial depression. […]

[6] = combination compared with A alone at comparable doses

- IC50 (A1 adenosine receptor): 0.03 µM
- binding to dopaminergic receptors (dopaminergic receptors): does not significantly bind
- binding to muscarinic receptors (muscarinic receptors): does not significantly bind
- binding to α1-adrenergic receptors (α1-adrenergic receptors): does not significantly bind
- binding to α2-adrenergic receptors (α2-adrenergic receptors): does not significantly bind
- binding to β1-adrenergic receptors (β1-adrenergic receptors): does not significantly bind
- binding to β2-adrenergic receptors (β2-adrenergic receptors): does not significantly bind
- binding to serotonergic receptors (serotonergic receptors): does not significantly bind
- binding to α-aminobuteric acid receptors [1]: does not significantly bind
Structure (SMILES): OC[C@H]1O[C@@H](n2cnc3c(N[C@@H]4CCc5ccccc54)ncnc32)[C@H](O)[C@@H]1O [B, (R)-N-(2,3-dihydro-1H-inden-1-yl)adenosine]
- heart rate [2]: decreases
- coronary flow ([2]; isolated perfused rat heart): Concentration-dependent increases
- heart rate [3]: dose-related decreases
- mean arterial blood pressure [3]: dose-related decreases
- calculated total peripheral resistance [4]: dose-related decreases
- heart rate [4]: dose-related decreases
- mean arterial blood pressure [4]: dose-related decreases
- pressure volume relationship of the left ventricle (LVEDP vs stroke volume) [5]: did not increase dP/dt, cardiac output, or affect the pressure volume relationship
- cardiac output [5, 6]: did not increase
- myocardial contractility (dP/dt of left ventricular pressure) [5, 6]: did not increase
